In patent publication US4587245A, “Method of treating neuropsychic disturbances by benzodiazepine derivatives and composition therefor” (Sanofi, priority 1976, dated 1986):
Where two headings read alike, the source gives them in different places.

Columns and labels:
[1] = test system: central receptor site of the benzodiazepines; assay: Affinity for the central benzodiazepine receptor site, displacement of 3H-flunitrazepam in vitro; assay type: binding; settings: mice and rats
Procedure: Studies were performed in mice and rats in order to evaluate the respective affinities of CM 6912 and of its metabolites on the central receptor site of the benzodiazepines.

motility of mice = assay: Spontaneous actography; assay type: in vivo; settings: oral
Procedure: (§1) The products according to the invention were subjected to pharmacological tests in mice in order to determine their activity on the central nervous system. We shall indicate below the various tests to which the products were subjected.
(§2) In all cases the products were administered orally.
1. Spontaneous actography
The animals are placed in individual cages through which pass two beams which strike two photoelectric cells.
During their movements, the animals (mice) intercept the beams and cause a recording on the impulse counters.
The variations in the motility of the treated animals are expressed in percentages relative to comparison animals; the sign-indicates a reduction (in percent) of the motility of the subjects.

[2] = test system: electric shock convulsions in mice; assay: Anti-convulsive activity in relation to electric shock; assay type: in vivo; settings: Mus musculus, oral, treated 1 hour beforehand, 12.5 V, 0.5 second, read-out: Anti-convulsive action Electric shock ED50
Procedure: as §1, §2
Anti-convulsive activity in relation to electric shock
An alternating current of 12.5 V is applied for 0.5 second by means of corneal electrodes to batches of 12 mice treated 1 hour beforehand with the product to be studied. The untreated mice subjected to this electric shock undergo a convulsion of the tonic type.

[3] = test system: mice pulling themselves up on a horizontal bar; assay: Traction test; assay type: in vivo; settings: Mus musculus, oral, 50% of mice can no longer pull themselves up
Procedure: as §1, §2
This consists of observing whether the animals (mice) are capable of pulling themselves up on a horizontal bar gripped by the front paws.
The results are expressed as the 50% effective dose (ED50), which is the dose (in mg/kg) for which 50% of the mice can no longer pull themselves up.

[4] = test system: pentylenetetrazol (cardiazol) convulsions in mice; assay: Anti-convulsive activity in relation to cardiazol; assay type: in vivo; settings: Mus musculus, oral, cardiazol 125 mg/kg intraperitoneally, protects 50% of animals, read-out: Anti-convulsive action Cardiazol ED50
Procedure: as §1, §2
Anti-convulsive activity in relation to cardiazol
When administered intraperitoneally at a dose of 125 mg/kg, pentylenetetrazol (or cardiazol) causes the appearance of lethal convulsions in 100% of the mice treated.
The active products administered orally prior to the cardiazol oppose the appearance of the convulsions and possibly allow the test animals to survive.
The results are expressed as the ED50, that is to say as the dose (in mg/kg) which protects 50% of the animals.

mice [5] = assay: Anxiolytic activity: 4 plate test; assay type: in vivo; settings: oral, 45 minutes after administration, lowest dose with significant effect
Procedure: as §1, §2
Anxiolytic activity: 4 plate test
The device is a parllelopiped chamber of which the floor consists of 4 metal plates of equal area. The experimenter can create a difference of potential which corresponds to a current of intensity 0.35 mA for a duration of 0.2 second, between each plate. Each time a mouse passes from one plate to the other, it receives an electric shock.
The anxiolytic agents cause an indifference to these electric shock and as a result the treated mice cross from one plate to another more frequently than the comparison mice. 45 minutes after administration of the product to be studied, the mice are placed in the chamber for 1 minute and the number of shocks received is measured and compared with the number of shocks received by the comparison animals. The results are expressed as a percentage increase in the number of shocks received by the treated animals relative to the comparison animals (which amounts to a percentage effect for a given dose), or as a threshold dose (TD) which is the lowest dose which produces a significant effect.

mice [6] = assay: Toxicity; assay type: in vivo; settings: oral
Procedure: as §1, §2
Finally, for certain products, the LDo in mg/kg (for oral administration) has been provided.

equilibration of mice = assay: Rotating rod test: equilibration; assay type: in vivo; settings: Mus musculus, oral, 50% of mice fall
Procedure: as §1, §2
3. Rotating rod test: equilibration
The results are expressed as the 50% effective dose (ED50) which is the dose (in mg/kg) for which 50% of the mice fall during the test.

[7] = Drug disposition studies after oral administration; assay type: in vivo, several animal species and man
From the text: The originality of the mechanism of action of CM 6912 has been determined by the appearance profile of active metabolites after oral administration.

man = assay: Therapeutic evaluation in man; assay type: in vivo; settings: daily dosage of 2 mg
Procedure: For this purpose, a pharmaceutical composition containing 2 mg of CM 6912 is administered once a day.

rats = assay: Approach-avoidance conflict procedure in Skinner boxes (dissociation of anxiolytic and sedative activities); assay type: in vivo, male Wistar rats; settings: intraperitoneal; for ED50: Rattus norvegicus, ip, 0.5 h, 30 minutes before the test
Procedure: Male Wistar rats are trained in Skinner boxes (Campden) in an approach-avoidance conflict procedure (Davidson and Cook, Psychopharmacologia 1969, 15, 159). The session lasts 30 minutes and consists of a multiple VI 30 sec/FR 3 schedule (sequence: 10 minutes VI+2 minutes FR+10 minutes VI+2 minutes FR+6 minutes VI). During the conflict periods, signalled by a light cue every 3d press delivers simultaneously a pellet and an electric shock. […] Lever presses are authomatically recorded by a microcomputer: non punished responses during the VI schedule and punished responses during the FR periods. A representative benzodiazepine of formula (I) above (R3=ethyl, R4=F; Code No. CM 6912) has been injected by intraperitoneal route 30 minutes before the test.

[8] = oral, several animal species and man
[9] = dose 0.5 mg/kg, minus sign = reduction

O=C1Nc2ccc(Cl)cc2C(c2ccccc2F)=NC1O (stereo not shown) [3-hydroxy analog]
displacement of 3H-flunitrazepam in vitro [1]: very potent

CCOC(=O)C1N=C(c2ccccc2)c2cc(Cl)ccc2NC1=O (stereo not shown) [CM 4279, reference compound]
Actography, variation in motility relative to comparison animals (motility of mice; dose 100 mg/kg): none
ED50 [2]: > 500 mg/kg
ED50 [3]: 100 mg/kg
ED50 [4]: 9 mg/kg
Anxiolysis 4 plates threshold dose (TD) (mice [5]): 10
Toxicity LD. (mice [6]): > 300 mg/kg
ED50 (equilibration of mice): > 100 mg/kg

CCOC(=O)C1N=C(c2ccccc2F)c2cc(Cl)ccc2NC1=O (stereo not shown) [CM 6912, 7-chloro-3-ethoxycarbonyl-5-(2-fluorophenyl)-2-oxo-2,3-dihydro-1H-benzodiazepine-1,4]
Actography, variation in motility relative to comparison animals (motility of mice; dose 33 mg/kg, minus sign = reduction): -23%
biotransformation [7, 8]: biotransformed into the free acid
stability in the gastro-intestinal tract [7, 8]: stable in the gastro-intestinal tract
ED50 [2]: 12 mg/kg
ED50 [3]: 10 mg/kg
adverse effect in man (man): without adverse effect
anxiolytic properties in man (man): potent anxiolytic properties
ED50 [4]: 0.6 mg/kg
Anxiolysis 4 plates threshold dose (TD) (mice [5]): 1
Toxicity LD. (mice [6]): > 300 mg/kg
displacement of 3H-flunitrazepam in vitro [1]: weak displacers
ED50 (equilibration of mice): 5 mg/kg
ED50 (rats; read-out: anxiolytic activity ED50 (increase in punished responding)): 1.66 mg/kg
ED50 (rats; read-out: sedative activity ED50 (decrease in unpunished responding)): 16 mg/kg
dissociation of the anxiolytic and sedative activities (rats): statistically significant

CCOC(=O)C1N=C(c2ccccc2Cl)c2cc(Cl)ccc2NC1=O (stereo not shown) [CM 7101, 7-chloro-3-ethoxycarbonyl-5-(2-chlorophenyl)-2-oxo-2,3-dihydro-1H-benzodiazepine-1,4]
Actography, variation in motility relative to comparison animals (motility of mice; [9]): -58%
ED50 [2]: 12 mg/kg
ED50 [3]: 6 mg/kg
ED50 [4]: 0.75 mg/kg
Anxiolysis 4 plates threshold dose (TD) (mice [5]): 0.5
Toxicity LD. (mice [6]): > 300 mg/kg
ED50 (equilibration of mice): 6 mg/kg

COC(=O)C1N=C(c2ccccc2Cl)c2cc(Cl)ccc2NC1=O (stereo not shown) [compound 7442]
Actography, variation in motility relative to comparison animals (motility of mice; [9]): -57%
ED50 [2]: 32 mg/kg
ED50 [3]: 5 mg/kg
ED50 [4]: 0.4 mg/kg
Anxiolysis 4 plates threshold dose (TD) (mice [5]): 0.1
Toxicity LD. (mice [6]): > 300 mg/kg
ED50 (equilibration of mice): 8 mg/kg

O=C1CN=C(c2ccccc2F)c2cc(Cl)ccc2N1 [de-carbethoxy analog]
displacement of 3H-flunitrazepam in vitro [1]: very potent

O=C(O)C1N=C(c2ccccc2F)c2cc(Cl)ccc2NC1=O (stereo not shown) [free acid]
activity of metabolite ([7]; metabolite of CM 6912): inactive metabolite
displacement of 3H-flunitrazepam in vitro [1]: weak displacers
